Kd data for twelve compounds are collected here from patent publication US20250064941A1, “SIGLEC LIGANDS, CONJUGATES, AND METHODS OF USE THEREOF” (Osprey Biopharmaceuticals, Inc., priority 2023, published 2025).

The target of test [1] is T1, human Siglec-2/CD22 protein (Homo sapiens, UniProt P20273).
T1 construct: purchased Acro Biosystems SI2-H82E3
T1 sequence (P20273 20-847): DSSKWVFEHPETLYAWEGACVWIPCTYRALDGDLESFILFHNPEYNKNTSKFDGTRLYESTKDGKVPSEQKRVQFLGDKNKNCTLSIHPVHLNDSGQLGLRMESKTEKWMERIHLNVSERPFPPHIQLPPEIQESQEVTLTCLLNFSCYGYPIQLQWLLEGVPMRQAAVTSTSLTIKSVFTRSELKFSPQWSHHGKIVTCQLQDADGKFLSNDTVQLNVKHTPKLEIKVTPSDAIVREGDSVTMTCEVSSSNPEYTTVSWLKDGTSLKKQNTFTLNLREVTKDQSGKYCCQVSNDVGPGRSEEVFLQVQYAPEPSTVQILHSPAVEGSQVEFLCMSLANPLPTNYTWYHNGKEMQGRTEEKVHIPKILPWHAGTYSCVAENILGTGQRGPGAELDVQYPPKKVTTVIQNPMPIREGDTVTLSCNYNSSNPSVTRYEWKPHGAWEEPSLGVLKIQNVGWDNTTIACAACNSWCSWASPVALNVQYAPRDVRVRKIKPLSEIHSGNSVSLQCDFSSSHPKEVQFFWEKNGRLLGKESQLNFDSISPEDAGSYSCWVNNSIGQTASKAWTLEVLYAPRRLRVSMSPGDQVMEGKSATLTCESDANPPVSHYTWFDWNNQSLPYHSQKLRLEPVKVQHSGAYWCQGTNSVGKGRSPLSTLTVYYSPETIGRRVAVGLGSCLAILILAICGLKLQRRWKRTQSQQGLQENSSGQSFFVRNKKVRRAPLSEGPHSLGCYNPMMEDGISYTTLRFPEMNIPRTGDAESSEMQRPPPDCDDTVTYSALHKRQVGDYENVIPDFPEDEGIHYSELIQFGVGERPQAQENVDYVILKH
Nature of the test: SPR binding affinity to human CD22. The note with it: steady-state analysis. In short, it runs like this:
(§1)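 Steady-state fits gave the affinities. Before capture on a streptavidin surface, biotinylated CD22 had native sialic acids stripped (SialoExo, 4 hours, 37° C.). Running buffer: 10 mM HEPES pH 7.5, 150 mM NaCl, 0.05% Tween-20, 1% DMSO, with DMSO solvent correction.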

Another test has as its target cynomolgus Siglec-2/CD22 (Macaca fascicularis, UniProt A0A2K5WCZ6). Put plainly: biochemical. The class given is binding. The note with it: SPR, steady-state analysis; read-out: Affinity cyno CD22. The method in brief: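 SPR with desialylated (SialoExo, 4 h, 37° C.) cynomolgus CD22 amine-coupled to a CM5 chip. Running buffer 10 mM HEPES, 150 mM NaCl, 0.05% Tween-20, pH 7.5, 1% DMSO, with solvent correction; 120 s dissociation. Affinities from steady-state analysis.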

In test [2] the target is T2, mouse Siglec-2-Fc-Avi (CD22) (Mus musculus, UniProt P35329).
T2 construct: made in house
T2 sequence (P35329 22-708 limits assumed): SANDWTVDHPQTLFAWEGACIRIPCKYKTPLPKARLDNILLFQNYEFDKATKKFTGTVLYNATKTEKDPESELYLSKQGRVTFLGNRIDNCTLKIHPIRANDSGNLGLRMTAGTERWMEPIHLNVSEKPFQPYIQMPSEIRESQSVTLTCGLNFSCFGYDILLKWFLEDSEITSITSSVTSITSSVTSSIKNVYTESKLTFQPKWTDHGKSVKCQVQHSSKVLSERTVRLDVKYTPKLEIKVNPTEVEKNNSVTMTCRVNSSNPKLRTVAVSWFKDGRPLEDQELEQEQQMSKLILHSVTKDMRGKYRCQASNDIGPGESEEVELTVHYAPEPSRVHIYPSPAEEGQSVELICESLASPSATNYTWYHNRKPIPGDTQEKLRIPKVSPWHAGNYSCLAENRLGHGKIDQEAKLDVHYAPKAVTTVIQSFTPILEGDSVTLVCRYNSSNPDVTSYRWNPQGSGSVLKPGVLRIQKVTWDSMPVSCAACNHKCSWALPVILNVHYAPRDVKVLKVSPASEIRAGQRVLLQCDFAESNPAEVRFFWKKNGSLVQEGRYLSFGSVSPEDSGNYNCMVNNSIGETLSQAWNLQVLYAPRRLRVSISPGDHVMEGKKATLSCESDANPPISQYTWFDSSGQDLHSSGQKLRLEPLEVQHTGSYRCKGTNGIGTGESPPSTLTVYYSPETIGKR
Nature of the test: SPR binding affinity to mouse CD22. The note with it: steady-state analysis. In short, it runs like this:
as §1
(Surface plasmon resonance follows binding to a sensor surface in real time, without labels.)

Each structure is given as a SMILES string. Some results are limits rather than exact numbers.

Sequence of cynomolgus Siglec-2/CD22 (A0A2K5WCZ6 entry or part of it): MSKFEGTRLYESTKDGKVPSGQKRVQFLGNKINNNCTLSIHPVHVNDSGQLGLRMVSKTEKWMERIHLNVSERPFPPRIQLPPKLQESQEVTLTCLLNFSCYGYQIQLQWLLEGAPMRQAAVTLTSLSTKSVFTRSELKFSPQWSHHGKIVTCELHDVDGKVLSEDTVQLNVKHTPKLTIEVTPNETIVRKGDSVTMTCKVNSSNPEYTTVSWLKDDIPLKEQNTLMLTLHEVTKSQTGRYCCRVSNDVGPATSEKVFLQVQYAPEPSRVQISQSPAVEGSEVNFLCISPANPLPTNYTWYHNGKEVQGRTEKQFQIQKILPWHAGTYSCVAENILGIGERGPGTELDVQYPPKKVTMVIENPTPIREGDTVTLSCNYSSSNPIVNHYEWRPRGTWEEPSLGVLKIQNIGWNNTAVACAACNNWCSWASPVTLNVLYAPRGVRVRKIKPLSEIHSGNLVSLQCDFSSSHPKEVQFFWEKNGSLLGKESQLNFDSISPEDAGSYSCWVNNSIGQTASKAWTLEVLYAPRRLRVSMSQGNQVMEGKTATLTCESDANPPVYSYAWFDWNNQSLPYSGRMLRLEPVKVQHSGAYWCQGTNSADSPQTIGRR

Regarding `C#CCOCCCCCCO[C@]1(C(=O)O)C[C@H](O)[C@@H](NC(=O)Cc2ccccc2)[C@H]([C@H](O)[C@H](O)CNC(=O)Cc2ccc(Cl)cc2)O1` [Compound 93, (2R,4S,5R,6R)-6-((1R,2R)-3-(2-(4-chlorophenyl)acetamido)-1,2-dihydroxypropyl)-4-hydroxy-5-(2-phenylacetamido)-2-((6-(prop-2-yn-1-yloxy)hexyl)oxy)tetrahydro-2H-pyran-2-carboxylic acid], the figures for the Kd (in test [1]; on cynomolgus Siglec-2/CD22; in test [2]) were 1000 to 10000 nM, over 10000 nM and over 10000 nM, respectively.

`C#CCOCCCCCCO[C@]1(C(=O)O)C[C@H](O)[C@@H](NC(=O)NCC2CC2)[C@H]([C@H](O)[C@H](O)CNC(=O)Cc2ccc(Cl)cc2)O1` [Compound 94, (2R,4S,5R,6R)-6-((1R,2R)-3-(2-(4-chlorophenyl)acetamido)-1,2-dihydroxypropyl)-5-(3-(cyclopropylmethyl)ureido)-4-hydroxy-2-((6-(prop-2-yn-1-yloxy)hexyl)oxy)tetrahydro-2H-pyran-2-carboxylic acid]: the Kd (in test [1]; on cynomolgus Siglec-2/CD22; in test [2]) was 1000 to 10000 nM in each case.

Take `C#CCCCCNC(=O)CCCCCCO[C@]1(C(=O)O)C[C@H](O)[C@@H](NC(=O)CO)[C@H]([C@H](O)[C@H](O)CNC(=O)Cc2ccc(Cl)cc2)O1` [Compound 96, (2R,4S,5R,6R)-6-((1R,2R)-3-(2-(4-chlorophenyl)acetamido)-1,2-dihydroxypropyl)-2-((7-(hex-5-yn-1-ylamino)-7-oxoheptyl)oxy)-4-hydroxy-5-(2-hydroxyacetamido)tetrahydro-2H-pyran-2-carboxylic acid]: the Kd (in test [1]; at cynomolgus Siglec-2/CD22; in test [2]) was under 1000 nM each time.

Take `O=C(O)CCCCCCCO[C@]1(C(=O)O)C[C@H](O)[C@@H](NC(=O)CO)[C@H]([C@H](O)[C@H](O)CNC(=O)Cc2ccc(Cl)cc2)O1` [Compound 97, (2R,4S,5R,6R)-2-((7-carboxyheptyl)oxy)-6-((1R,2R)-3-(2-(4-chlorophenyl)acetamido)-1,2-dihydroxypropyl)-4-hydroxy-5-(2-hydroxyacetamido)tetrahydro-2H-pyran-2-carboxylic acid]: the Kd (in test [1]; on cynomolgus Siglec-2/CD22; in test [2]) was under 1000 nM each time.

For `O=C(O)CCCCCCO[C@]1(C(=O)O)C[C@H](O)[C@@H](NC(=O)CO)[C@H]([C@H](O)[C@H](O)CNC(=O)Cc2ccc(Cl)cc2)O1` [Compound 98, (2R,4S,5R,6R)-2-((6-carboxyhexyl)oxy)-6-((1R,2R)-3-(2-(4-chlorophenyl)acetamido)-1,2-dihydroxypropyl)-4-hydroxy-5-(2-hydroxyacetamido)tetrahydro-2H-pyran-2-carboxylic acid], the Kd in test [1] is under 1000 nM; on cynomolgus Siglec-2/CD22, under 1000 nM; in test [2] it was 1000 to 10000 nM.

As to `O=C(O)CCCCCCCCCCCCCCCO[C@]1(C(=O)O)C[C@H](O)[C@@H](NC(=O)CO)[C@H]([C@H](O)[C@H](O)CNC(=O)Cc2ccc(Cl)cc2)O1` [Compound 99, (2R,4S,5R,6R)-2-((15-carboxypentadecyl)oxy)-6-((1R,2R)-3-(2-(4-chlorophenyl)acetamido)-1,2-dihydroxypropyl)-4-hydroxy-5-(2-hydroxyacetamido)tetrahydro-2H-pyran-2-carboxylic acid], the Kd (in test [1]; on cynomolgus Siglec-2/CD22; in test [2]) was under 1000 nM in each case.

As for `C#CCN(CC(=O)O)C(=O)CCCCCO[C@]1(C(=O)O)C[C@H](O)[C@@H](NC(=O)CO)[C@H]([C@H](O)[C@H](O)CNC(=O)Cc2ccc(Cl)cc2)O1` [Compound 100, (2R,4S,5R,6R)-2-((6-((carboxymethyl)(prop-2-yn-1-yl)amino)-6-oxohexyl)oxy)-6-((1R,2R)-3-(2-(4-chlorophenyl)acetamido)-1,2-dihydroxypropyl)-4-hydroxy-5-(2-hydroxyacetamido)tetrahydro-2H-pyran-2-carboxylic acid], the Kd (in test [1]; on cynomolgus Siglec-2/CD22; in test [2]) was under 1000 nM each time.

For the compound `C#CCN(CC(=O)O)C(=O)CCCO[C@]1(C(=O)O)C[C@H](O)[C@@H](NC(=O)CO)[C@H]([C@H](O)[C@H](O)CNC(=O)Cc2ccc(Cl)cc2)O1` [Compound 101, (2R,4S,5R,6R)-2-(4-((carboxymethyl)(prop-2-yn-1-yl)amino)-4-oxobutoxy)-6-((1R,2R)-3-(2-(4-chlorophenyl)acetamido)-1,2-dihydroxypropyl)-4-hydroxy-5-(2-hydroxyacetamido)tetrahydro-2H-pyran-2-carboxylic acid], the Kd (in test [1]; at cynomolgus Siglec-2/CD22; in test [2]) was 1000 to 10000 nM in each case.

As for `C#CCC(NC(=O)CCCO[C@]1(C(=O)O)C[C@H](O)[C@@H](NC(=O)CO)[C@H]([C@H](O)[C@H](O)CNC(=O)Cc2ccc(Cl)cc2)O1)C(=O)O` (stereo partly drawn) [Compound 102, (2R,4S,5R,6R)-2-(4-((1-carboxybut-3-yn-1-yl)amino)-4-oxobutoxy)-6-((1R,2R)-3-(2-(4-chlorophenyl)acetamido)-1,2-dihydroxypropyl)-4-hydroxy-5-(2-hydroxyacetamido)tetrahydro-2H-pyran-2-carboxylic acid], the Kd (in test [1]; at cynomolgus Siglec-2/CD22; in test [2]) was 1000 to 10000 nM in each case.

With `C#CCOCCCCCCC(O)[C@]1(C(=O)O)C[C@H](O)[C@@H](NC(=O)CO)[C@H]([C@H](O)[C@H](O)CNC(=O)Cc2ccc(Cl)cc2)O1` (stereo partly drawn) [Compound 103, (2S,4S,5R,6R)-6-((1R,2R)-3-(2-(4-chlorophenyl)acetamido)-1,2-dihydroxypropyl)-4-hydroxy-2-(1-hydroxy-7-(prop-2-yn-1-yloxy)heptyl)-5-(2-hydroxyacetamido)tetrahydro-2H-pyran-2-carboxylic acid], the Kd is under 1000 nM in test [1], under 1000 nM on cynomolgus Siglec-2/CD22 and 1000 to 10000 nM in test [2].

Consider `NCC(O)CO[C@]1(C(=O)O)C[C@H](O)[C@@H](NC(=O)CO)[C@H]([C@H](O)[C@H](O)CNC(=O)Cc2ccc(Cl)cc2)O1` (stereo partly drawn) [Compound 104, (2R,4S,5R,6R)-2-(3-amino-2-hydroxypropoxy)-6-((1R,2R)-3-(2-(4-chlorophenyl)acetamido)-1,2-dihydroxypropyl)-4-hydroxy-5-(2-hydroxyacetamido)tetrahydro-2H-pyran-2-carboxylic acid], for which the Kd (in test [1]; on cynomolgus Siglec-2/CD22; in test [2]) was over 10000 nM throughout.

Consider `C#CCOP(=O)(O)OCCCCCCO[C@]1(C(=O)O)C[C@H](O)[C@@H](NC(=O)CO)[C@H]([C@H](O)[C@H](O)CNC(=O)Cc2ccc(Cl)cc2)O1` [Compound 105, (2R,4S,5R,6R)-6-((1R,2R)-3-(2-(4-chlorophenyl)acetamido)-1,2-dihydroxypropyl)-4-hydroxy-2-((6-((hydroxy(prop-2-yn-1-yloxy)phosphoryl)oxy)hexyl)oxy)-5-(2-hydroxyacetamido)tetrahydro-2H-pyran-2-carboxylic acid], for which the Kd (in test [1]; on cynomolgus Siglec-2/CD22; in test [2]) was under 1000 nM throughout.
